Measured values reported in patent US20230143932A1, “PIN6 PROTEINS FOR THE FORMATION OF NODULE-LIKE STRUCTURES” (University of Freiburg, priority 2021, published 2023).

What was measured:
Experiment in all cases: Root organogenesis response to transient auxin treatment (pseudonodule count)
Type in all cases: in vivo
[1] = test system: Lotus japonicus ecotype Gifu; conditions: 50 μM for 1 hour, counted 7 days after treatment
Method: (§1) In order to investigate the potential impact of auxin and cytokinin treatment on root organogenesis, seeds of the Medicago truncatula cultivar Jester, the Lotus japonicus ecotype Gifu, and the Hordeum vulgare cultivar Golden Promise were sterilized, and then seedlings were grown on FP media (without Nitrogen and Phosphorus) for 3, 7, and 2 days, respectively. Grown plants were transformed to FP media with either control treatment, 50 μM of 2,4-Dichlorophenoxyacetic acid (synthetic auxin), 100 nM of 6-Benzylaminopurine (synthetic cytokinin) or both of the hormones for 1 hour before moving to FP media. FIG. 1A-1C show the number of pseudonodules/Arrested Lateral roots (ALR) counted 7 days after control treatment, treatment with 2,4-Dichlorophenoxyacetic acid (2,4-D), 6-Benzylaminopurine (BAP), or both.

[2] = test system: Hordeum vulgare cultivar Golden Promise; conditions: Hordeum vulgare (barley) roots, 50 μM for 1 hour, counted 7 days after treatment
Method: as §1

[3] = test system: Medicago truncatula cultivar Jester; conditions: 50 μM for 1 hour, counted 7 days after treatment
Method: as §1

O=C(O)COc1ccc(Cl)cc1Cl [2,4-Dichlorophenoxyacetic acid]
pseudonodule formation compared with control plants [1]: increased pseudonodule formation
pseudonodule formation compared with control plants [2]: increased pseudonodule formation
pseudonodule formation compared with control plants ([2]; listed as auxin): formation of pseudonodules
pseudonodule formation compared with control plants [3]: increased pseudonodule formation
